The values that follow come from patent US12662464B2, “Degraders of cyclin-dependent kinase 12 (CDK12) and uses thereof” (DANA-FARBER CANCER INSTITUTE, INC., priority 2019, dated 2026).

One data set has as its target T1, CDK12 (Homo sapiens, UniProt Q9NYV4).
T1 construct: endogenous in cells; host or cells: Jurkat (human T-ALL)
Kind of data set: CDK12 degradation by Western blotting. It counts as cell-based. The settings on record: degradation of CDK12 at 100 nM. As to the method: Cells treated with DMSO or with the CDK12 degraders BSJ-04-023, BSJ-04-071, BSJ-04-076, BSJ-04-077, BSJ-04-078, BSJ-04-079, and BSJ-04-100 at the indicated concentrations were collected and examined with Western blots at 6 hours.
Cells treated with DMSO or with the CDK12 degraders BSJ-04-023, BSJ-04-086, BSJ-04-089, BSJ-04-098, BSJ-04-099, and BSJ-04-100 at the indicated concentrations were collected and examined with Western blots at 6 hours.
Assays for the degradation of CDK12 by exemplary compounds of Formula (I) were conducted. The results for the assays for the degradation of CDK12 by exemplary CDK12 degrader compounds depicted in Table 1 are shown in FIGS. 1-3.
Background: A western blot detects proteins with antibodies after separation by electrophoresis.

Data set [1] in a line: Pharmacokinetic study, single IV injection in mice. It counts as in vivo. The settings on record: 2 mg/kg IV, male C57BI/6 mice, plasma. As to the method:
Standard pharmacokinetic parameters were determined by administration of exemplary compound BSJ-05-063 to male C57BI/6 mice, and conducting standard pharmacokinetic studies. A single 2 mg/kg intravenous (IV) injection of compound BSJ-05-063 solution in […] DMSO/Cremophor EL® (oxirane, propane-1,2,3-triol)/water was delivered, and the pharmacokinetic parameters were evaluated. The plasma concentrations of BSJ-05-063 were reported at each of the 8 time points (5 minutes, 15 minutes, 30 minutes, 1 hours, 2 hours, 4 hours, 6 hours, and 8 hours post-dosing) are the average values from 3 test animals (male C57BI/6 mice).

The test system of another data set is CDK12, CDK13, CDK9. Kind of data set: Rescue of degradation by pre-treatment, Western blot in Jurkat and Molt 4 cells. It counts as cell-based, human. The settings on record: 2 hour pre-treatment with THZ-5-31, Carfilzomib, thalidomide or MLN4924, then 250 nM for 6 hours. The protocol: FIGS. 1-3 show the degradation rescued by pre-treatment with Carlfilzomib and exemplary CDK12 irreversible inhibitor, THZ-5-31
The degradation of CDK12, CDK13, CDK9 was rescued by 2 hour pre-treatment with exemplary CDK12 inhibitor THZ-5-31, exemplary […] Carfilzomib (CFZ), thalidomide (Thal.) and MLN4924 (inhibitor of NEDD8-Activating Enzyme (NAE)) at the indicated concentrations before treatment with exemplary CDK12 inhibitor BSJ-0423 (BSJ-04-023) at 250 nM for 6 hours. BSJ-04-023 is of formula: […]

T1 sequence (Q9NYV4 whole entry): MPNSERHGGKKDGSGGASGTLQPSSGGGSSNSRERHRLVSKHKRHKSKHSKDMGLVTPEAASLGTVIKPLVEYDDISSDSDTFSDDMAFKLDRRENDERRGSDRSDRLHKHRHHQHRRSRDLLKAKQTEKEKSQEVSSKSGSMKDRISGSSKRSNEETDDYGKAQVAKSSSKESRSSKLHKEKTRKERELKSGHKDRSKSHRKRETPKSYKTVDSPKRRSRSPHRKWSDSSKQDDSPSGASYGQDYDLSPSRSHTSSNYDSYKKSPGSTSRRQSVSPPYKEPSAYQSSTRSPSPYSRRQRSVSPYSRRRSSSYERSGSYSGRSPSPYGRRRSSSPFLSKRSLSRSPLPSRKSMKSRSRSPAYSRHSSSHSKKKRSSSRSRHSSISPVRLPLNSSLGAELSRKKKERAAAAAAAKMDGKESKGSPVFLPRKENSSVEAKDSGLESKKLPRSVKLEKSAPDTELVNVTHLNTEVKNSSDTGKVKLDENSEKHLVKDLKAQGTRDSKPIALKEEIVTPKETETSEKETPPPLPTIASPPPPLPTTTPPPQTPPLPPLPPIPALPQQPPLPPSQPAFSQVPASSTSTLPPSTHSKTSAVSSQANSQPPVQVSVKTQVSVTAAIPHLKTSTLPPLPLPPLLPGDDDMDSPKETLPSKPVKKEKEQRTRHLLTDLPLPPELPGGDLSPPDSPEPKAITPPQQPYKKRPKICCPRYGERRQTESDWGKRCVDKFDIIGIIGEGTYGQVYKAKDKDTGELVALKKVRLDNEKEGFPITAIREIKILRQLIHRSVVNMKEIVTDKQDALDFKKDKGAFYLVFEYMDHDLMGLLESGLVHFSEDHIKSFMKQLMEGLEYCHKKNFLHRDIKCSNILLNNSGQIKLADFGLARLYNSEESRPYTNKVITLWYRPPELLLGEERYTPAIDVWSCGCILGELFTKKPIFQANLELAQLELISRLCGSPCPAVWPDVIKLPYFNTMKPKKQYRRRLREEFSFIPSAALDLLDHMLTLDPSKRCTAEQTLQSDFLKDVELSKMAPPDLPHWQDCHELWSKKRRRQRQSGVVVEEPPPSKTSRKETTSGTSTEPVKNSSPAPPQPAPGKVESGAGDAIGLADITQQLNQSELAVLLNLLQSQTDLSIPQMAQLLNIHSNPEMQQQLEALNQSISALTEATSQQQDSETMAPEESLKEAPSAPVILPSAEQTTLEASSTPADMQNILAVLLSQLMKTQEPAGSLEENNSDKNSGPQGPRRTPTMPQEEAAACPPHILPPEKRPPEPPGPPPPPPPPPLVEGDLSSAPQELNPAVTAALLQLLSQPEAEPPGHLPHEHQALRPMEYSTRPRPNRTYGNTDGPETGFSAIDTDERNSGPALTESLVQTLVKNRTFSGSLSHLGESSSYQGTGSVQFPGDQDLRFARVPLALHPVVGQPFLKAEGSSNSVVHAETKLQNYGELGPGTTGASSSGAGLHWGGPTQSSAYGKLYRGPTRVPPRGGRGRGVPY
T1 sequence (O75909 whole entry partner): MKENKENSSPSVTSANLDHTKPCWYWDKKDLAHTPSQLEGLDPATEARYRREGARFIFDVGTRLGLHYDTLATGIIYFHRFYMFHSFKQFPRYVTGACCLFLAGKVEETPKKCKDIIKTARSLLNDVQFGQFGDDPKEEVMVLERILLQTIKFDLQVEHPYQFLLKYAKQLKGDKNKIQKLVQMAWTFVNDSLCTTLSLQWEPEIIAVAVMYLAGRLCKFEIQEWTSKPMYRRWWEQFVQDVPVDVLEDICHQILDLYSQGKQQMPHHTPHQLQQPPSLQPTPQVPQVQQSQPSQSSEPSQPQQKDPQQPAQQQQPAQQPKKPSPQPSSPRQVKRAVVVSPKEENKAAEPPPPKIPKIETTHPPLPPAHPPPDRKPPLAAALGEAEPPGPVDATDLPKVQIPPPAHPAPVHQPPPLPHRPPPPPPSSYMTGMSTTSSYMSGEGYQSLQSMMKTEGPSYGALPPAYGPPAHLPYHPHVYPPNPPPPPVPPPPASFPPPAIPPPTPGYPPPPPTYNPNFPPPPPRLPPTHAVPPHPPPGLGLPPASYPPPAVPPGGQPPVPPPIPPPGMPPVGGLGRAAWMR

For the compound `O=C(COc1cccc2c1C(=O)N(C1CCC(=O)NC1=O)C2=O)NCCOCCOCCOCCN1CCC[C@@H](Nc2ncc(Cl)c(-c3c[nH]c4ccccc34)n2)C1` (stereo partly drawn) [Compound 1-5, N-(2-(2-(2-(2-((R)-3-((5-chloro-4-(1H-indol-3-yl)pyrimidin-2-yl)amino)piperidin-1-yl)ethoxy)ethoxy)ethoxy)ethyl)-2-((2-(2,6-dioxopiperidin-3-yl)-1,3-dioxoisoindolin-4-yl)oxy)acetamide], at CDK12, the CDK12 degradation activity entry was “++ (“++” indicates 80% degradation)”. The same measure, in the same setting: with `O=C(COc1cccc2c1C(=O)N(C1CCC(=O)NC1=O)C2=O)NCCCCCN1CCN(c2ccc(C(=O)N3CCC[C@@H](Nc4ncc(Cl)c(-c5c[nH]c6ccccc56)n4)C3)cc2)CC1` (stereo partly drawn) [Compound 1-9, N-(5-(4-(4-((R)-3-((5-chloro-4-(1H-indol-3-yl)pyrimidin-2-yl)amino)piperidine-1-carbonyl)phenyl)piperazin-1-yl)pentyl)-2-((2-(2,6-dioxopiperidin-3-yl)-1,3-dioxoisoindolin-4-yl)oxy)acetamide] the entry was “++ (“++” indicates 80% degradation)”. Take `O=C(COc1cccc2c1C(=O)N(C1CCC(=O)NC1=O)C2=O)NCCCN1CCN(c2ccc(C(=O)N3CCC[C@@H](Nc4ncc(Cl)c(-c5c[nH]c6ccccc56)n4)C3)cc2)CC1` (stereo partly drawn) [Compound 1-10, N-(3-(4-(4-((R)-3-((5-chloro-4-(1H-indol-3-yl)pyrimidin-2-yl)amino)piperidine-1-carbonyl)phenyl)piperazin-1-yl)propyl)-2-((2-(2,6-dioxopiperidin-3-yl)-1,3-dioxoisoindolin-4-yl)oxy)acetamide]: the CDK12 degradation activity entry on CDK12 was “+ (“+” indicates 60% degradation of CDK12 at 100 nM)”.

Take `O=C(COc1cccc2c1C(=O)N(C1CCC(=O)NC1=O)C2=O)NCCCCCCCN1CCC(C(=O)N2CCC[C@@H](Nc3ncc(Cl)c(-c4c[nH]c5ccccc45)n3)C2)CC1` (stereo partly drawn) [Compound 1-12, N-(7-(4-((R)-3-((5-chloro-4-(1H-indol-3-yl)pyrimidin-2-yl)amino)piperidine-1-carbonyl)piperidin-1-yl)heptyl)-2-((2-(2,6-dioxopiperidin-3-yl)-1,3-dioxoisoindolin-4-yl)oxy)acetamide]: the CDK12 degradation activity result at CDK12 is reported as “++ (“++” indicates 80% degradation)”.

`CC(C)S(=O)(=O)c1ccccc1Nc1nc(N[C@@H]2CCCN(CCCCCCCNC(=O)COc3cccc4c3C(=O)N(C3CCC(=O)NC3=O)C4=O)C2)ncc1Cl` (stereo partly drawn) [Compound 1-14, N-(7-((R)-3-((5-chloro-4-((2-(isopropylsulfonyl)phenyl)amino)pyrimidin-2-yl)amino)piperidin-1-yl)heptyl)-2-((2-(2,6-dioxopiperidin-3-yl)-1,3-dioxoisoindolin-4-yl)oxy)acetamide]: at CDK12, the CDK12 degradation activity result was “+++ (“+++” indicates a greater than 90% degradation)”.

Turning to `Cc1ncsc1-c1ccc([C@H](C)NC(=O)[C@@H]2C[C@@H](O)CN2C(=O)[C@@H](NC(=O)CCCCCCCCCCN2CCC[C@@H](Nc3ncc(Cl)c(Nc4ccccc4S(=O)(=O)C(C)C)n3)C2)C(C)(C)C)cc1` [Compound 1-15, (2S,4R)-1-((S)-2-(11-((R)-3-((5-chloro-4-((2-(isopropylsulfonyl)phenyl)amino)pyrimidin-2-yl)amino)piperidin-1-yl)undecanamido)-3,3-dimethylbutanoyl)-4-hydroxy-N—((S)-1-(4-(4-methylthiazol-5-yl)phenyl)ethyl)pyrrolidine-2-carboxamide], in data set [1], the “AUC % Extrap” value is listed as 6.27 % Extrap, the AUCINF_obs came out at 368545 ng·min/mL, the Cl_obs is on record as 6.04 mL/min/kg and the MRTINF_obs was 2.41 h. Besides, in data set [1], the T1/2 was 2.21 h, the Tmax was 4.8 min and the Vss_obs is on record as 0.84 L/kg. Moreover, the CDK12 degradation activity entry on CDK12 is “+++ (“+++” indicates a greater than 90% degradation)”. For `Cc1ncsc1-c1ccc([C@H](C)NC(=O)[C@@H]2C[C@@H](O)CN2C(=O)[C@@H](NC(=O)CCOCCOCCOCCN2CCC[C@@H](Nc3ncc(Cl)c(Nc4ccccc4S(=O)(=O)C(C)C)n3)C2)C(C)(C)C)cc1` [Compound 1-16, (2S,4R)-1-((S)-14-(tert-butyl)-1-((R)-3-((5-chloro-4-((2-(isopropylsulfonyl)phenyl)amino)pyrimidin-2-yl)amino)piperidin-1-yl)-12-oxo-3,6,9-trioxa-13-azapentadecan-15-oyl)-4-hydroxy-N—((S)-1-(4-(4-methylthiazol-5-yl)phenyl)ethyl)pyrrolidine-2-carboxamide], the CDK12 degradation activity result on CDK12 is “+++ (“+++” indicates a greater than 90% degradation)”. `O=C(COc1cccc2c1C(=O)N(C1CCC(=O)NC1=O)C2=O)NCCCCCCCN1CCC[C@@H](Nc2ncc(Cl)c(-c3c[nH]c4ccccc34)n2)C1` (stereo partly drawn) [Compound I-1, N-(7-((R)-3-((5-chloro-4-(1H-indol-3-yl)pyrimidin-2-yl)amino)piperidin-1-yl)heptyl)-2-((2-(2,6-dioxopiperidin-3-yl)-1,3-dioxoisoindolin-4-yl)oxy)acetamide]: in the data set on CDK12, CDK13, CDK9, the “degradation of CDK12, CDK13, CDK9 after pre-treatment” value is listed as “rescued”. In addition, the CDK12 degradation activity entry on CDK12 is reported as “+++ (“+++” indicates a greater than 90% degradation)”.

In the case of `O=C(COc1cccc2c1C(=O)N(C1CCC(=O)NC1=O)C2=O)NCCCCCCN1CCC[C@@H](Nc2ncc(Cl)c(-c3c[nH]c4ccccc34)n2)C1` (stereo partly drawn) [Compound I-2, N-(6-((R)-3-((5-chloro-4-(1H-indol-3-yl)pyrimidin-2-yl)amino)piperidin-1-yl)hexyl)-2-((2-(2,6-dioxopiperidin-3-yl)-1,3-dioxoisoindolin-4-yl)oxy)acetamide], at CDK12, the CDK12 degradation activity entry is given as “++ (“++” indicates 80% degradation)”.

A word on the Tmax: it is the time from dosing to the highest level.
